Assay results: the RepoRT retention time repository

Test: HILIC, Waters Atlantis Premier BEH Z-HILIC, 100 × 2.1 mm, 1.7 µm, 40 °C, 0.15 mL/min, estimated dead time 1.5 min; A: water + 20 mM ammonium carbonate + 5 µM medronic acid; B: 10% water + 90% acetonitrile + 2 mM ammonium carbonate + 0.5 µM medronic acid; gradient (min/%B) 0/95 18/55 18.1/20 21.5/20 22/95 23.5/95 25.5/95
Details: stereoisomer not certain

Structure (SMILES) | LC retention time
O=C(O)CCC(=O)C(=O)O [2-Oxoglutaric acid] | 8.94 min
O=C(O)CCC(O)C(=O)O (configuration not stated) [2-hydroxy glutaric acid] | 9.45 min
Nc1ncnc2c1ncn2C1OC(COP(=O)(O)OP(=O)(O)O)C(O)C1O (configuration not stated) [ADP] | 11.3 min
Nc1ncnc2c1ncn2C1OC(COP(=O)(O)O)C(O)C1O (configuration not stated) [AMP] | 9.36 min
Nc1ncnc2c1ncn2C1OC(COP(=O)(O)OP(=O)(O)OP(=O)(O)O)C(O)C1O (configuration not stated) [ATP] | 13.2 min
CC(=O)SCCNC(=O)CCNC(=O)C(O)C(C)(C)COP(=O)(O)OP(=O)(O)OCC1OC(n2cnc3c(N)ncnc32)C(O)C1OP(=O)(O)O (configuration not stated) [Acetyl-CoA] | 10.1 min
Nc1ncnc2c1ncn2C1OC(CO)C(O)C1O (configuration not stated) [Adenosine] | 4.11 min
NC(N)=NCCCC(N)C(=O)O (configuration not stated) [Arginine] | 19.3 min
O=C(O)CCCCC1SCC2NC(=O)NC21 (configuration not stated) [Biotin] | 4.5 min
C[N+](C)(C)CC(O)CC(=O)[O-] (configuration not stated) [Carnitine] | 9.85 min
O=C(O)CC(O)(CC(=O)O)C(=O)O [Citric acid] | 13.8 min
CC(C)(COP(=O)(O)OP(=O)(O)OCC1OC(n2cnc3c(N)ncnc32)C(O)C1OP(=O)(O)O)C(O)C(=O)NCCC(=O)NCCS (configuration not stated) [CoenzymeA] | 11.8 min
Cc1cc2nc3c(=O)[nH]c(=O)nc-3n(CC(O)C(O)C(O)COP(=O)(O)OP(=O)(O)OCC3OC(n4cnc5c(N)ncnc54)C(O)C3O)c2cc1C (configuration not stated) [FAD] | 7.24 min
O=C(CO)C(O)C(O)C(O)COP(=O)(O)O (configuration not stated) [Fructose 6-phosphate] | 11.3 min
O=P(O)(O)OCC1OC(O)(COP(=O)(O)O)C(O)C1O (configuration not stated) [Fructose-1,6-bisphosphate] | 15.5 min
Nc1nc2c(ncn2C2OC(COP(=O)(O)OP(=O)(O)OP(=O)(O)O)C(O)C2O)c(=O)[nH]1 (configuration not stated) [GTP] | 15.7 min
O=P(O)(O)OCC1OC(O)C(O)C(O)C1O (configuration not stated) [Glucose-6-phosphate] | 12.3 min
NC(CCC(=O)O)C(=O)O (configuration not stated) [Glutamic acid] | 9.67 min
NC(=O)CCC(N)C(=O)O (configuration not stated) [Glutamine] | 10.3 min

Structure (SMILES) | LC retention time
O=P(O)(O)OCC(O)CO (configuration not stated) [Glycerol-3-phosphate] | 10.2 min
OCC1OC(O)C(O)C(O)C1O (configuration not stated) [Hexose] | 7.63 min
O=C(O)CC(C(=O)O)C(O)C(=O)O (configuration not stated) [Isocitric acid] | 13.5 min
CCC(C)C(N)C(=O)O (configuration not stated) [Isoleucine] | 6.42 min
CC(O)C(=O)O (configuration not stated) [Lactic Acid] | 3.43 min
CC(C)CC(N)C(=O)O (configuration not stated) [Leucine] | 6.03 min
NCCCCC(N)C(=O)O (configuration not stated) [Lysine] | 19.5 min
NC(=O)C1=CN(C2OC(COP(=O)(O)OP(=O)(O)OCC3OC(n4cnc5c(N)ncnc54)C(O)C3O)C(O)C2O)C=CC1 (configuration not stated) [NADH] | 8.54 min
NC(=O)C1=CN(C2OC(COP(=O)(O)OP(=O)(O)OCC3OC(n4cnc5c(N)ncnc54)C(OP(=O)(O)O)C3O)C(O)C2O)C=CC1 (configuration not stated) [NADPH] | 13.7 min
NC(=O)c1ccc[n+](C2OC(COP(=O)(O)OP(=O)(O)OCC3OC(n4cnc5c(N)ncnc54)C(OP(=O)(O)O)C3O)C(O)C2O)c1 (configuration not stated) [NADP] | 13.2 min
NC(=O)c1ccc[n+](C2OC(COP(=O)(O)OP(=O)(O)OCC3OC(n4cnc5c(N)ncnc54)C(O)C3O)C(O)C2O)c1 (configuration not stated) [NAD] | 10.2 min
C=C(OP(=O)(O)O)C(=O)O [PEP] | 13.3 min
O=C(O)C(CO)OP(=O)(O)O (configuration not stated) [Phosphoglyceric acid A] | 12.4 min
O=C(O)CCC(=O)O [Succinic Acid] | 9.51 min
O=C(CO)COP(=O)(O)O [Triose phosphate] | 10.2 min
CC(=O)NC1C(OP(=O)(O)OP(=O)(O)OCC2OC(n3ccc(=O)[nH]c3=O)C(O)C2O)OC(CO)C(O)C1O (configuration not stated) [UDP-GlcNAc] | 9.78 min
CCC(=O)OC(CC(=O)[O-])C[N+](C)(C)C (configuration not stated) [carnitine-C3] | 6.52 min
O=C1CC(C(=O)O)NC(=O)N1 (configuration not stated) [dihydroorotic acid] | 4.59 min
